Results as given in patent US20210395239A1 (Hoffmann-La Roche Inc., priority 2018, published 2021).

Columns and labels:
human TLR7 = molecular target: T1, human TLR7 (Homo sapiens, UniProt Q9NYK1); assay: HEK293-Blue-hTLR-7 cells assay (SEAP reporter, R848 stimulation); assay type: cell-based; details: HEK293-Blue-hTLR7 cells, R848, 20 hrs; read-out: HEK/hTLR7 IC50
T1 construct: host or cells: HEK293 (HEK-Blue hTLR7)
T1 sequence (Q9NYK1 27-1049): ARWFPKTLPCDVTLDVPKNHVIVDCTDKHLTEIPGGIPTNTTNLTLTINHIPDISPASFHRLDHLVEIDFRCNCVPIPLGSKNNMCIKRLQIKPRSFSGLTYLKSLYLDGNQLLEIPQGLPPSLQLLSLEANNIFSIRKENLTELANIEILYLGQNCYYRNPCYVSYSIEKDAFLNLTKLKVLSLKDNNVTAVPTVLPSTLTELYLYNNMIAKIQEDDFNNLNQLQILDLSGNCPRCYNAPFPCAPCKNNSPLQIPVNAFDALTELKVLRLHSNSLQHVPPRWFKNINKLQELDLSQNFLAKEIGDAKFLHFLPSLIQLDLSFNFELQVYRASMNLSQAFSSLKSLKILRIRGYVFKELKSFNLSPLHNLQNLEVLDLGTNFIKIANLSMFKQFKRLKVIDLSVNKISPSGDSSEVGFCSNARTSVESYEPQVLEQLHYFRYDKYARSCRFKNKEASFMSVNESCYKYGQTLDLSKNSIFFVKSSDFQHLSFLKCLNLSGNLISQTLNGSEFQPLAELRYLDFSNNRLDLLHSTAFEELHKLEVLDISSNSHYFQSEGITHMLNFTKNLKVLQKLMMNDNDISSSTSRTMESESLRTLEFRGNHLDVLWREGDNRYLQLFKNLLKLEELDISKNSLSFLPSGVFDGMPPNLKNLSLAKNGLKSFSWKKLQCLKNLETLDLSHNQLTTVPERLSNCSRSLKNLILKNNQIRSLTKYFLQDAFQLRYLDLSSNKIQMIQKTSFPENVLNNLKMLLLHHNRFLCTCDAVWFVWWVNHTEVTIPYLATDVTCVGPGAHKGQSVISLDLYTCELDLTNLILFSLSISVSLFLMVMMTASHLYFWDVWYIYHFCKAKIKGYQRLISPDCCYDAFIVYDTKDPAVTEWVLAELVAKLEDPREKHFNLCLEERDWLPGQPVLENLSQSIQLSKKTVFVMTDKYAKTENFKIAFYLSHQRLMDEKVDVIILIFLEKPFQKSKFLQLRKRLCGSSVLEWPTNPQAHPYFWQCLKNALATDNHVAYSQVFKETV
In short: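 HEK293-Blue-hTLR7 cells (NF-κB/AP-1-driven SEAP reporter) were stimulated with R848 alongside serially diluted compound at 1% final DMSO for 20 h at 37 °C. Supernatant SEAP was then developed with QUANTI-Blue for 2 h at 37 °C and absorbance read at 620–655 nm; antagonism is measured as reduced reporter signal.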

CYP3A4 = molecular target: T2, CYP3A4 (Homo sapiens, UniProt P08684); assay: CYP inhibition assay in human liver microsome, CYP3A4; assay type: in vitro ADME; details: human, human liver microsomes, probe midazolam 5 μM, substrate midazolam 5 μM, third value of 2C9/2D6/3A4
T2 construct: tissue BD-Gentest 452117; host or cells: human liver microsomes
T2 sequence (P08684 whole entry): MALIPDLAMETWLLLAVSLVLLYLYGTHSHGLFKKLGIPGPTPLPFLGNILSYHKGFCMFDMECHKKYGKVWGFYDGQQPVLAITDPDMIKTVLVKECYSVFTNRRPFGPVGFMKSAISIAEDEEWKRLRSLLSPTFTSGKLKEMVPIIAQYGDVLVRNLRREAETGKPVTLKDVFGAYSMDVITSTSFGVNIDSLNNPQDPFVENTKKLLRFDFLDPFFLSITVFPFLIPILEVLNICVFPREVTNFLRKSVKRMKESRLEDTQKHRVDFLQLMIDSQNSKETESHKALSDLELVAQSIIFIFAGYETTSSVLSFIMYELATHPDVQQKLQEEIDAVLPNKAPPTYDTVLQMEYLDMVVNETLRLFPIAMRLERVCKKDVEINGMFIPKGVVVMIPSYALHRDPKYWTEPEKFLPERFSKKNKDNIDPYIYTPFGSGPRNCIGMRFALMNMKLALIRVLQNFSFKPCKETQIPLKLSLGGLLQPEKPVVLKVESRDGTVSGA
Experimental: (§1) This is a high throughput screening assay used for assessment of reversible inhibition of CYP2C9, CYP2D6, and CYP3A4 activity of test compounds in human liver microsome (HLM) in early discovery stage.
(§2) 10 mM DMSO stock solutions of test compounds were diluted in DMSO to generate 2 mM intermediate stock solution. 250 nL, of intermediate stock solution were transferred in duplicate into 3 separate 384 well microtitre plates (assay-ready plates). A mixture of HLM and each substrate was made up. 45 μL of HLM substrate mix was then transferred to each well of an assay ready plate and mixed. The negative (solvent) and positive controls (standard inhibitor for each CYP) were included in each assay ready plate. The assay ready plate was warmed to 37° C. in an incubator over 10 minutes. 5 μL pre-warmed NADPH regenerating system was added to each incubation well to start the reaction. Final incubation volume was 50 μL. The assay plate then was placed back in the 37° C. incubator. After incubation (10 minutes for CYP2D6) for 5 minutes, incubates were quenched by addition of 50 μL 100% acetonitrile containing internal standards (400 ng/mL 13C6-4′-OH-Diclofenac, 20 ng/mL D3-Dextrorphan and 20 ng/mL D4-1′OH-Midazolam). The supernatants were collected for RapidFire/MS/MS analysis.
(§3) RapidFire online solid phase extraction/sample injection system (Agilent) coupled with API4000 triple quadrupole mass spectrometer (AB Sciex) were used for sample analysis. The mobile phase composed of acetonitrile and water supplemented with 0.1% formic acid. A C4 solid phase extraction cartridge is used for sample separation. MS detection is achieved in positive ion MRM mode.
(§4) Peak areas for substrate, metabolite and internal standard are determined using the RapidFire integrator software (version 3.6.12009.12296). Peak area ratios (PAR) of metabolite and internal standard (stable-labelled metabolite) are then calculated. The measurement window for each experiment is then defined:
(§5) PAR (0% activity)=average PAR for all incubations containing concentrated inhibitor; Par (100% activity)=average PAR for all incubations containing no inhibitor (DMSO controls); % Activity (test inhibitor)=[PAR (test inhibitor)−PAR (0% activity)]/[PAR (100% activity)−PAR (0% activity)]; % Inhibition (test inhibitor)=100-% Activity (test inhibitor).

CYP2C9 = molecular target: T3, CYP2C9 (Homo sapiens, UniProt P11712); assay: CYP inhibition assay in human liver microsome, CYP2C9; assay type: in vitro ADME; details: human, human liver microsomes, probe diclofenac 5 μM, substrate diclofenac 5 μM, first value of 2C9/2D6/3A4
T3 construct: tissue BD-Gentest 452117; host or cells: human liver microsomes
T3 sequence (P11712 whole entry): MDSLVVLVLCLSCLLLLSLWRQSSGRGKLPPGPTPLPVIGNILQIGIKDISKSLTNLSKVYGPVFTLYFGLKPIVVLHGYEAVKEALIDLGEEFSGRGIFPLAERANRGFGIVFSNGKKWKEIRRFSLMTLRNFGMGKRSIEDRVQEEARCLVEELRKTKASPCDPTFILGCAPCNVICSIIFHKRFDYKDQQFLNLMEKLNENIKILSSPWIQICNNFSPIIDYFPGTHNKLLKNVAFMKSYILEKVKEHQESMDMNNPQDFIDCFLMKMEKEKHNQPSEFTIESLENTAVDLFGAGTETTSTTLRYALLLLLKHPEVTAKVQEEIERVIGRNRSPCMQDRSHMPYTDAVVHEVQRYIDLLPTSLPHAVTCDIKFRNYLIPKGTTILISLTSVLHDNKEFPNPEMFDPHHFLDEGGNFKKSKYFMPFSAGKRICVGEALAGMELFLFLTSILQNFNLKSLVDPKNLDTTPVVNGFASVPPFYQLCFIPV
Experimental: as §1, §2, §3, §4, §5

Row | IC50 (human TLR7) [nM] | inhibition at 5 min, 10 µM (CYP3A4) [%] | inhibition at 5 min, 10 µM (CYP2C9) [%] | Structure (SMILES)
1 | 23 | 7.5 | -1 | [2H]c1ccc2c(N3C[C@H](CN4CCN(c5ccc(N6CC(C)(N)C6)nc5)CC4)O[C@H](C)C3)ccc(C#N)c2n1 [Example 132, 5-[(2S,6R)-2-[[4-[6-(3-amino-3-methyl-azetidin-1-yl)-3-pyridyl]piperazin-1-yl]methyl]-6-methyl-morpholin-4-yl]-2-deuterio-quinoline-8-carbonitrile]
2 | 15 | 35 | -1 | [2H]c1ccc2c(N3C[C@H](CN4CCN(c5ccc(N6CC7(CNCCO7)C6)nc5)CC4)O[C@H](C)C3)ccc(C#N)c2n1 [Example 152, 2-deuterio-5-[(2R,6S)-2-methyl-6-[[4-[6-(5-oxa-2,8-diazaspiro[3.5]nonan-2-yl)-3-pyridyl]piperazin-1-yl]methyl]morpholin-4-yl]quinoline-8-carbonitrile]
3 | 32 | 10.5 | 2.5 | C[C@@H]1CN(c2ccc(C#N)n3ncc(F)c23)C[C@H](CN2CCN(c3ccc(N4CC(C)(N)C4)nc3)CC2)O1 [Example 154, 4-[(2S,6R)-2-[[4-[6-(3-amino-3-methyl-azetidin-1-yl)-3-pyridyl]piperazin-1-yl]methyl]-6-methyl-morpholin-4-yl]-3-fluoro-pyrazolo[1,5-a]pyridine-7-carbonitrile]
4 | 3 | -0.5 | -5.5 | C[C@@H]1CN(c2ccc(C#N)n3ncc(F)c23)C[C@H](CN2CC(c3ccc(N4CC(C)(N)C4)nc3)C2)O1 [Example 158, 4-[(2S,6R)-2-[[3-[6-(3-amino-3-methyl-azetidin-1-yl)-3-pyridyl]azetidin-1-yl]methyl]-6-methyl-morpholin-4-yl]-3-fluoro-pyrazolo[1,5-a]pyridine-7-carbonitrile]
5 | 11 | 4.5 | -1.5 | C[C@@H]1CN(c2ccc(C#N)n3ncc(F)c23)C[C@H](CN2CC(c3ccc(N4CC(C)(N)C4)cc3)C2)O1 [Example 160, 4-[(2S,6R)-2-[[3-[4-(3-amino-3-methyl-azetidin-1-yl)phenyl]azetidin-1-yl]methyl]-6-methyl-morpholin-4-yl]-3-fluoro-pyrazolo[1,5-a]pyridine-7-carbonitrile]

The next lines start with the compound.

Row | Structure (SMILES) | IC50 (human TLR7) [nM] | inhibition at 5 min, 10 µM (CYP3A4) [%] | inhibition at 5 min, 10 µM (CYP2C9) [%]
6 | Cc1cc(N2CCNCC2)nc(N2CCN(C[C@H]3CN(c4ccc(C#N)c5nccnc45)C[C@@H](C)O3)CC2)n1 [Example 114, 8-[(2R,6S)-2-methyl-6-[[4-(4-methyl-6-piperazin-1-yl-pyrimidin-2-yl)piperazin-1-yl]methyl]morpholin-4-yl]quinoxaline-5-carbonitrile] | 3 | 16 | 7.5
7 | Cc1ccc(N2C[C@H](CN3CCN(c4nccc(N5CCNCC5)n4)CC3)O[C@H](C)C2)c2nccnc12 [Example 116, (2R,6S)-2-methyl-4-(8-methylquinoxalin-5-yl)-6-[[4-(4-piperazin-1-ylpyrimidin-2-yl)piperazin-1-yl]methyl]morpholine] | 21 | 8 | -8.5
8 | Cc1ccc(N2C[C@H](CN3CCN(c4ccnc(N5CCNCC5)n4)CC3)O[C@H](C)C2)c2nccnc12 [Example 117, (2R,6S)-2-methyl-4-(8-methylquinoxalin-5-yl)-6-[[4-(2-piperazin-1-ylpyrimidin-4-yl)piperazin-1-yl]methyl]morpholine] | 13 | 10 | 8.5
9 | C[C@@H]1CN(c2ccc(C#N)c3nccnc23)C[C@H](CN2CCN(c3nccc(N4C[C@@H](N)[C@H](F)C4)n3)CC2)O1 [Example 119, 8-[(2S,6R)-2-[[4-[4-[(3R,4R)-3-amino-4-fluoro-pyrrolidin-1-yl]pyrimidin-2-yl]piperazin-1-yl]methyl]-6-methyl-morpholin-4-yl]quinoxaline-5-carbonitrile] | 16 | 23.5 | -12.5
10 | [2H]c1nc2c(C#N)ccc(N3C[C@H](CN4CCN(c5nc(C)cc(N6CC(N)C6)n5)CC4)O[C@H](C)C3)c2nc1[2H] [Example 124, 8-[(2S,6R)-2-[[4-[4-(3-aminoazetidin-1-yl)-6-methyl-pyrimidin-2-yl]piperazin-1-yl]methyl]-6-methyl-morpholin-4-yl]-2,3-dideuterio-quinoxaline-5-carbonitrile] | 5 | 16 | -2
11 | [2H]c1ccc2c(N3C[C@H](CN4CCN(c5nc(C)cc(N6C[C@H](OC)[C@@H](N)C6)n5)CC4)O[C@H](C)C3)ccc(C#N)c2n1 [Example 134, 5-[(2S,6R)-2-[[4-[4-[(3S,4S)-3-amino-4-methoxy-pyrrolidin-1-yl]-6-methyl-pyrimidin-2-yl]piperazin-1-yl]methyl]-6-methyl-morpholin-4-yl]-2-deuterio-quinoline-8-carbonitrile] | 25 | 47.5 | 44.5
12 | [2H]c1ccc2c(N3C[C@H](CN4CCN(c5ccc(N6C[C@@H](N)[C@H](OC)C6)nc5)CC4)O[C@H](C)C3)ccc(C#N)c2n1 [Example 143, 5-[(2S,6R)-2-[[4-[6-[(3R,4R)-3-amino-4-methoxy-pyrrolidin-1-yl]-3-pyridyl]piperazin-1-yl]methyl]-6-methyl-morpholin-4-yl]-2-deuterio-quinoline-8-carbonitrile] | 21 | 18 | -9.5
13 | [2H]c1ccc2c(N3C[C@H](CN4CCN(c5ccc(N[C@H]6CNC[C@H]6F)nc5)CC4)O[C@H](C)C3)ccc(C#N)c2n1 [Example 162, 2-deuterio-5-[(2S,6R)-2-[[4-[6-[[(3S,4R)-4-fluoropyrrolidin-3-yl]amino]-3-pyridyl]piperazin-1-yl]methyl]-6-methyl-morpholin-4-yl]quinoline-8-carbonitrile] | 11 | 42.5 | -2.5
14 | C[C@@H]1CN(c2ccc(C#N)n3nccc23)C[C@H](CN2CC(c3ccc(N4CC(C)(N)C4)cc3)C2)O1 [Example 163, 4-[(2S,6R)-2-[[3-[4-(3-amino-3-methyl-azetidin-1-yl)phenyl]azetidin-1-yl]methyl]-6-methyl-morpholin-4-yl]pyrazolo[1,5-a]pyridine-7-carbonitrile] | 22 | 0.5 | -4.5
